Results taken from patent US8796302B2 (priority 2004, dated 2014).

Columns and labels:
[1] = test system: dopaminergic neurons in rat primary mesencephalic neuron-glia cultures; experiment: [3H]DA uptake in LPS-treated mesencephalic neuron-glia cultures; assay type: cell-based; details: LPS 5 ng/ml; for concentration of greatest level of protection (DA uptake): 10^−12-10^−16 M tested; for enhancement of [3H]DA uptake after exposure to LPS: 30 min pretreatment, 7 days
Experimental: Neuron-glia cultures were prepared from the ventral mesencephalic tissues of embryonic day 13-14 Fisher F344 rats or day 12-13 wild-type C57BL/6J (gp91phox^+/+) mice. Dissociated cells were seeded at 1×10^5/well and 5×10^5/well to poly-D-lysine-coated 96-well and 24-well plates, respectively. Cells were maintained at about 37° C. in a humidified atmosphere of 5% CO2 and 95% air, in minimal essential medium (MEM) containing 10% fetal bovine serum (FBS), 10% horse serum (HS), 1 gm/l glucose, 2 mM L-glutamine, 1 mM sodium pyruvate, 100 μM nonessential amino acids, 50 U/ml penicillin, and 50 μg/ml streptomycin. Seven-day-old cultures were used for treatment.
Dextromethorphan (obtained from Sigma-Aldrich (St. Louis, Mo.) as dextromethorphan hydrobromide) was freshly prepared as a stock solution (1 mM) in ddH2O and sterile-filtered right before use. For treatment of the cultures, the DM was serially diluted (10×) with fresh culture medium containing 2% of fetal bovine and horse serum. The neuron-glia cultures were pretreated with 10^−5-10^−17M DM 30 minutes prior to treatment with 10 ng/ml of LPS.
Seven days after treatment, the degeneration of dopaminergic neurons was assessed by [^3H]-dopamine (DA) uptake assays. The [^3H]-DA uptake assays were performed as follows. Cultures were washed twice with warm Krebs-Ringer buffer (KRB, 16 mM sodium phosphate, 119 mM NaCl, 4.7 mM KCl, 1.8 mM CaCl2, 1.2 mM MgSO4, 1.3 mM EDTA, and 5.6 mM glucose; pH7.4) and then incubated for about 20 minutes at about 37° C. with 1 μM [^3H]-DA in KRB in order to allow for the uptake of DA. Afterwards, the cultures were washed (three times) with ice-cold KRB and the cells were collected in 1 N NaOH. Radioactivity was determined by liquid scintillation counting.
(§1) This example tests whether or not post-treatment with DM is still neuroprotective in LPS-induced neurotoxicity. Neuron-glia co-cultures as prepared in Example 1 were first treated with LPS (20 ng/ml) for twelve hours, and then LPS was removed by removing the media from the cultures and washing twice with PBS. Different concentrations of DM (10^−5, 10^−10, and 10^−14 M) were then added to the cultures and incubation was continued for another 6 or 7 days. The DA uptake and the superoxide production were measured as in Example 1 and 5.
Neuron-glia cell cultures were prepared as in Example 1, and pretreated with the various peptide fragments of Table 1 (peptide fragments were obtained from BACHEM) for 30 minutes followed by addition of 5 ng/ml of LPS. DA neurotoxicity was measured as an Example 1 at 7 days post treatment.
DA neurotoxicity was measured at 7 days post treatment as in Example 1. Dopaminergic neuronal death was determined at 7 days post treatment using immunocytochemical staining as in Example 2.
Neuron-glia cultures were prepared from the ventral mesencephalic tissues of embryonic day 13-14 rats. Dissociated cells were seeded at 1×10^5/well and 5×10^5/well to poly-D-lysine-coated 96-well and 24-well plates, respectively.

[2] = test system: intracellular reactive oxygen species; experiment: Intracellular ROS (DCFH oxidation) after LPS; assay type: cell-based, rat; details: 10^−14 M, enriched-microglia cultures, LPS 10 ng/ml
Experimental: The production of intracellular reactive oxygen species was measured by DCFH oxidation. The DCFH-DA (Molecular Probes, Eugene, Oreg.) reagent passively diffuses into cells in which it is hydrolyzed by intracellular esterase to liberate 2′-7′-dichlorofluoressein which, during reaction with oxidizing species, yields a highly fluorescent compound 2′-7′-dichlorofluorescein (DCF) that is trapped inside the cell. For each measurement, a fresh stock solution of CM-H2-DCFDA (5 mM) was prepared in dimethylsulfoxide. CM-H2-DCFDA, diluted to a final concentration of 1 μM in phenol red-free HBSS containing 2% FBS and 2% HS, was added to cultures and incubated for about 30 min at about 37° C. After washing two times with warm HBSS, vehicle or stimulators in HBSS were added to cultures. After incubation for about 30 min at about 37° C., fluorescence intensity was measured at 485 nm for excitation and 530 nm for emission using a SpectraMax Gemini XS fluorescence microplate reader (Molecular Devices).
Assay of intracellular ROS is performed as follows. 5-(and −6)-Chloromethyl-2′,7′-dichlorodihydrofluorescein diacetate (CM-H2-DCFDA) (Molecular Probes, Eugene, Oreg.), a chloromethyl derivative of H2-DCFDA, passively diffuses into cells in which it is hydrolyzed by intracellular esterases to liberate 2′-7′-dichlorofluorescein (DCF) which, during reaction with oxidizing species, yields a highly fluorescent compound that is trapped inside the cell. […] Cells were seeded at 1×10^5/well in 96-well plates for one day followed by treatment with 0.6 mM or 1.2 mM VPA for 24 h. The cultures were used for the assay of intracellular ROS.
After washing two times with warm Hank's balanced salt solution (HBSS), CM-H2-DCFDA, diluted to a final concentration of 1 μM in phenol red-free HBSS, was added to cultures and incubated for 30 min at 37° C. Then cultures were added with 0.6 or 1.2 mM VPA in HBSS again for 30 min and followed the treatment with 100 ng/ml LPS for 2 hours at 37° C., fluorescence intensity was measured at 485 nm for excitation and 530 nm for emission using a SpectraMax Gemini XS fluorescence microplate reader (Molecular Devices, Sunnyvale, Calif.).

[3] = test system: TH-IR (dopaminergic) neurons in mesencephalic neuron-glia cultures; experiment: TH-IR neuron count and morphology in LPS-treated neuron-glia cultures; assay type: cell-based, rat; details: LPS 5 ng/ml; for concentration of peak protection against LPS-induced DA neuron cell loss: 10^−12-10^−16 M tested; for LPS-induced damage of TH immuno-reactive neurons: 10^−14 M
[4] = test system: dopaminergic neurons in PHOX^+/+ and PHOX^−/− mouse neuron-glia cultures; experiment: [3H]DA uptake in neuron-glia cultures of PHOX+/+ and PHOX−/− mice; assay type: cell-based; details: PHOX−/− cultures, 10^−13-10^−14 M, LPS 5 ng/ml
Experimental: To further study the role of ROS in DM-elicited neuroprotection, neuron-glia cultures were prepared from NADPH oxidase-deficient (PHOX^−/−) and wild-type (PHOX^+/+) mice.
(§2) Neurotoxicity was assessed by DA uptake as described in Example 1. TNFα production was measured by ELISA and iROS was determined by DCFDA as in Example 5. Results are expressed as a percentage of the control culture in FIG. 7A, pg/ml in FIG. 7B, and difference from control in FIG. 7C, respectively, and are the mean±S.E.M. of five individual experiments with triplicates in each experiment. *, P<0.05 compared with LPS culture.
(§3) The rat and mouse ventral mesencephalic neuron-glia cultures were prepared as in Example 1. […] DA neurotoxicity was measured by using the [^3H] DA uptake assay as in Example 1. The data are expressed as the percent of the control cultures and are the mean±SEM. The release of TNFα was measured with a commercially available enzyme-linked immunosorbent assay kit. *P<0.05, **P<0.01, compared to control. The amount of TNFα was measured as in Example 2.

[5] = test system: TNFα; experiment: TNFα production in neuron-glia cultures of PHOX+/+ and PHOX−/− mice; assay type: cell-based, mouse; details: LPS 5 ng/ml
Experimental: as §2, §3

[6] = target: T1, gp91/p22 (Homo sapiens, UniProt P04839); experiment: [3H]naloxone binding to COS-7 cells transfected with gp91/p22; details: COS-7 gp91/p22 cells, [3H]naloxone 2 nM, displaced with 10 μM cold naloxone
T1 construct: expressed in transfected cells; host or cells: COS-7 (stably transfected); intact cells or membrane preparations
Experimental: Binding affinities of naloxone for COS-7 cells transfected with gp91/p22 was determined using either [^3H]-(+)Naloxone or [^3H]-(−)Naloxone (2 nM; PerkinEhner Life Sciences) as ligands and displaced with 10 μM of cold (−) Naloxone in HBBS containing 0.1% (W/V) fatty acids free albumin (lot B22558, Calbiochem). COS-7 cells transfected with gp91/p22 and COS-7 cells that were not transfected (WT) were detached using Versene (1:5000, GibcoBRL, Life technologies). For intact cell assays, after washing twice with HBSS, cells were transferred to micro centrifuge tubes at 10^6 cells per tube.
To acquire membrane preparations, cells were lysed in buffer ([…] Tris, pH=7.4, 2 mM EDTA, 10 μg/ml CLAP) and homogenized. Lysate was transferred to a 50 ml conical tube, where there were centrifuged at 250 g for about 10 minutes at about 4 C. The supernatant was then transferred to another tube and spun at 100,000 G for about 90 minutes. The supernatant was then discarded and the protein pellet was re-suspended in 2 ml of lysis buffer. […]
All competition reactions of either intact cells or membrane preparations were allowed to proceed at 4° C. […] After washing with HBSS four times, the filters were collected and radioactivity retained on the filters was determined by liquid Scintillation counting. All values are expressed as percentages relative to the binding capacity of the wild type control.

[7] = test system: superoxide; experiment: Superoxide release (SOD-inhibitable cytochrome c reduction) after LPS; assay type: cell-based, rat; details: 10^−14 M, enriched-microglia cultures, LPS 10 ng/ml
Experimental: The release of superoxide was determined by measuring the superoxide dismutase (SOD)-inhibitable reduction of cytochrome c. To measure the immediate release of superoxide from microglia-enriched or neuron-glia after stimulation, cultures grown in 96-well plates were switched to phenol red-free HBSS (50 μl/well). To each well was added 50 μl of HBSS containing vehicle or DM. The cultures were then incubated at about 37° C. for about 30 min followed by 50 μl of ferricytochrome c (100 μM) in HBSS, with and without 600 U/ml SOD, 50 μl of vehicle or LPS in HBSS. The absorbance at 550 nm was read with a SpectraMax Plus microplate spectrophotometer (Molecular Devices, Sunnyvale, Calif.).
as §1, with “5. Results are expressed as a percentage of the control cultures and are the mean±S.E.M of three to six experiments with triplicates in each experiment. ##, P<0.01 compared with control culture; *, P<0.05 compared with the LPS-treated culture.” for “5.”
Primary enriched-microglia cultures were prepared as in Example 1. […] The intracellular ROS concentrations and superoxide amounts were measured as in Example 5. The data are expressed as the percent of the control cultures and are the mean±SEM of three experiments performed in triplicate. *P<0.05, **P<0.01, compared to control.

[8] = test system: dopaminergic neurons in rat primary mesencephalic neuron-glia cultures; experiment: [3H]DA uptake in LPS-treated mesencephalic neuron-glia cultures; assay type: cell-based; details: femtomolar concentrations, LPS 5 ng/ml
[9] = PHOX−/− mice, 30 min pretreatment
[10] = control (PHOX+/+) mice, 10^−14 M

T1 sequence (P04839 whole entry): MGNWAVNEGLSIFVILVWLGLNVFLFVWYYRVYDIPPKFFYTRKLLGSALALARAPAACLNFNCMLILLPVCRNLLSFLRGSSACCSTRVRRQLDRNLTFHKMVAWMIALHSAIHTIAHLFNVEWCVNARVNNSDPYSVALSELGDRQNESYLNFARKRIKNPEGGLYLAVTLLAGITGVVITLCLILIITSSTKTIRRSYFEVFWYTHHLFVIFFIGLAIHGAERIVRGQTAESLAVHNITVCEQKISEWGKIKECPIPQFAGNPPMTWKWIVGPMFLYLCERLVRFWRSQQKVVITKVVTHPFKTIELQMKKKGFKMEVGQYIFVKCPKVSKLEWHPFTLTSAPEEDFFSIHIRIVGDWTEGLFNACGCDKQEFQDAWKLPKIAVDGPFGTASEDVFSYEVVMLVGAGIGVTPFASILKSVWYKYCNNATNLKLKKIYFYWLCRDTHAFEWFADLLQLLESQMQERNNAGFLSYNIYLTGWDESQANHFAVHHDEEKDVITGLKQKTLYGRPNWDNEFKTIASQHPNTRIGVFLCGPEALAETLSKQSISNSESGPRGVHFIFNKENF
T1 sequence (P13498 whole entry partner): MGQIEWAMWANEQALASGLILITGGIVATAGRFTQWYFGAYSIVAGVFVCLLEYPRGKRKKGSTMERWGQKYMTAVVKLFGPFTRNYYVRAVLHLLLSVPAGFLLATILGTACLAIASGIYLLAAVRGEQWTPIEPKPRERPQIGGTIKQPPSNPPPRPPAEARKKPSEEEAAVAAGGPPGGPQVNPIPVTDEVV

Compound	concentration of greatest level of protection (DA uptake) [1]	enhancement of [3H]DA uptake after exposure to LPS [1]	reduction of intracellular ROS concentrations [2] [%]	concentration of peak protection against LPS-induced DA neuron cell loss [3]	LPS-induced damage of TH immuno-reactive neurons [3]	neuroprotection (DA uptake) [4]	TNFα reduction in response to LPS [5, 9]	TNFα reduction in response to LPS [5, 10]	binding capacity relative to control COS-7 cells [6]	microglial superoxide response [7]	neuroprotection against LPS-induced neurodegeneration [8]
C=CCN1CC[C@]23c4c5ccc(O)c4O[C@H]2C(=O)CC[C@@]3(O)[C@H]1C5 [naloxone, (5α)-4,5-Epoxy-3,14-dihydroxy-17-(2-propenyl)morphinan-6-one]	10^−14 M	approximately 35%	65	10^−14 M	protected TH immuno-reactive neurons from LPS-induced damage	failed to show neuroprotection	failed to show any TNFα reduction	showed a reduction of TNFα	150-180%	nearly control levels	–
glycine-glycine-phenylalanine [GGF]	10^−14 M	approximately 35%	65	10^−14 M	protected TH immuno-reactive neurons from LPS-induced damage	failed to show neuroprotection	failed to show any TNFα reduction	showed a reduction of TNFα	–	nearly control levels	minimal peptide sequence required for neuroprotection
